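All cell lines were grown in 96-well plates and treated with compound for 48 hours. Here, GI50 denotes the concentration required for 50% inhibition of growth. TGI denotes the concentration required for complete inhibition of growth.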
Key:
Test in all cases: growth of human tumour cells (NCI), 48 h
[1] = system: M14 melanoma
[2] = system: HCT-15 colon
[3] = system: HS 578T breast
[4] = system: OVCAR-5 ovarian
[5] = system: NCI-H226 lung
[6] = system: K-562 leukemia
[7] = system: ACHN renal
[8] = system: KM12 colon
[9] = system: A549 NSCLC
[10] = system: MCF7 breast

Structure (SMILES)	TGI [1] [µM]	TGI [2] [µM]	TGI [3] [µM]	TGI [4] [µM]	TGI [5] [µM]	TGI [6] [µM]	TGI [7] [µM]	TGI [8] [µM]	GI50 [2] [µM]	GI50 [3] [µM]	GI50 [4] [µM]	GI50 [5] [µM]	GI50 [7] [µM]	GI50 [8] [µM]	GI50 [9] [µM]	TGI [9] [µM]	GI50 [10] [µM]	TGI [10] [µM]	GI50 [1] [µM]
CNC1C(O)CC(OC2C/C=C(\C)C/C(C)=C/C=C/CCC(C)CNC(=O)/C=C/C=C/C2C)OC1C (configuration not stated)	0.773	0.531	1.85	2.53	43.8	0.184	2.85	1.02											
CC[C@H](C)C(=O)O[C@H]1CCC=C2C=C[C@H](C)C(CCC3C[C@@H](O)CC(=O)O3)[C@H]21 (some centres not stated)	> 100	> 100	> 100	> 100	46		> 100	> 100	4.83	5.19	20.8	6.2	1.7	45.6	17.7	> 100	39.5	> 100	
Cn1c2cccc3nnc4cccc(c4c32)n1C	> 100	> 100		> 100	> 100	> 100	> 100	> 100								> 100			
Clc1ccc(CO/N=C(\Cn2ccnc2)c2ccc(Cl)cc2Cl)c(Cl)c1	3.71	3.21	> 100	3.26	3.01		3.17		1.57	2.73	1.67	1.42	1.76		1.55	3.32	1.54	3.02	1.85
COC(=O)C1=CC2OC1(C)C1(CC1)C2=O (configuration not stated)	29.1	40		57.4	43.5	41.9	34.4	43.9								70			
O=C1c2ccccc2C(=O)c2nc(-c3ccccc3)c(-c3ccccc3)nc21	> 100	> 100		> 100	> 31.6	> 100	> 100	> 100								> 84.2			
COC(=O)C(=O)C(C(=O)C(=O)Nc1cc([N+](=O)[O-])ccc1[N+](=O)[O-])c1nc2ccc(C(=O)c3ccccc3)cc2[nH]c1=O (configuration not stated)	98.8	> 100		70.5	89	91.3	> 100	> 100								> 100			
CCC(=C(c1ccc(OCc2ccccc2)cc1)c1ccc(OCc2ccccc2)cc1)c1ccc(OC)cc1	> 100	> 100		> 100	> 100	> 100	> 100	> 100								> 100			
Cc1ccc(S(=O)(=O)N/N=C(\C(=O)Nc2cccc([N+](=O)[O-])c2)c2nc3ccc([N+](=O)[O-])cc3[nH]c2=O)cc1	> 100	> 100		> 100	> 100	> 100	> 100	> 100								> 100			
COc1ccc(OC)c2cc(C3(C)SCCCS3)ccc12	> 100	> 100		> 100		> 100	> 100	> 100								> 100			
CC1C(=O)N(C)C2(CO)C(=O)O[C@H](C)C12O (some centres not stated)	> 100	> 100		> 100		> 100		> 100								> 100			
Cc1ccc2[nH]c(=O)c(C(C#N)c3ccccc3)nc2c1 (configuration not stated)	> 100	> 100		> 100	> 100	> 100	> 100	> 100								> 100			
CCOC(=O)C1=C(C)N(NC(=O)c2ccccc2)C2(O)CCCC12C(=O)OCC (configuration not stated)	> 100	> 100		> 100	> 100	> 100	> 100	> 100								> 100			
CC1C2=CC=C(O2)C(C)(C)C2=CC=C(O2)C(C)(C)C2=CC=C(O2)C(C)(C)C2=CC=C1O2		> 100		> 100	> 100	> 100	> 100	> 100								> 100			
Cc1ccc(C2=NO[C@@H]3C(=O)N(c4ccc(Cc5ccc(N6C(=O)[C@H]7C(c8ccc(C)cc8)=NO[C@H]7C6=O)cc5)cc4)C(=O)[C@H]23)cc1	> 100	> 100		> 100	> 100	> 100	> 100	> 100								> 100			
O=C(NCC#CCO)C(F)(F)F	> 100	> 100		> 100	> 100		> 100	> 100								> 100			
O=C(CC1(O)C(=O)Nc2c(Cl)cc(Cl)cc21)c1ccc2ccccc2c1 (configuration not stated)	16.6	14.2		30.3		18.3	28.7	18.8								18.2			

From PubChem BioAssay (NCI)
